Tested on: UV-induced free radicals in porcine ear skin
Experiment: Skin antioxidative protection/retention (SAP/SAR) by ESR spectroscopy in porcine ear skin exposed to UV
Set-up: species or system pig
From the text: Freshly excised porcine ear skin is close to human skin that is routinely used as a model for testing the protective efficacy of several topically applied antioxidants against UV-induced free radicals. Porcine skin biopsies obtained from local slaughterhouse (pig skin, 6 month old animals, external lobe of the ears) were used for the experiments. The skin was washed, the subdermal fat was removed and cut into 2×2 cm pieces before the application of test samples on the epidermal layer.
The skin has an intrinsic antioxidant protection potential (enzymatic and non-enzymatic), which can be measured by electron spin resonance (ESR) spectroscopy. If an active test sample applied to the stratum corneum penetrates to deep layers of skin, it increases the skin antioxidative protection (SAP). Labeling skin epidermis and dermis (by soaking skin on dermis side) with a semi-stable test radical (TEMPO, 2,2,6,6-tetramethyl piperidine-N-oxyl) that reacts with free radicals produces signal intensities detected by ESR spectroscopy, which can be quantitatively expressed as percent SAP values to determine the antioxidant activity in skin (epidermis and dermis).
Using SAP values from ESR spectroscopy, skin antioxidative retention (SAR) potential of a test cosmetic formulation can be effectively measured using appropriate radical probes. SAR value indicates the antioxidative activity of the skin after free radical damage (UV radiation), which evaluates the protective effectiveness of topically applied antioxidants/free radical scavengers. In addition to the assessment of antioxidative activity in skin, the SAR value also validates the penetration of the topically applied antioxidants. The SAR values are expressed in percent and are calculated using the following formula: SAR [%]=(SAPUV,Product−SAPUV,Placebo)/(SAPPlacebo−SAPUV,Placebo).
The study was conducted blinded and the operator was supplied with formulations that were coded. Pro-NP™, control NPs, or placebo (mixed at 2% w/w in anhydrous lotion) were applied on the skin (2 mg/cm^2) and allowed to penetrate for definite times (10 minutes, 30 minutes, 4 hours or 18 hours). The skin was then exposed to UV radiation (0.6 MED; Minimal Erythema Dose) to induce free radicals that lead to a decrease in the SAP values up to 59% of the initial value (without UV treatment) of the untreated skin. Irradiation source: UV solar simulator 300 W Oriel (Newport). The irradiances as integrated value over the spectral ranges were E (UVB=280-320)=23.5 W/m^2 and E (UVA=320-400 nm)=180 W/m^2. The maintenance of the SAP values after UV exposure due to the test product is expressed by the SAR values.

Tocopherol [1% Tocopherol]
SAR (%) 10 mins (2% w/w in anhydrous lotion, 2 mg/cm^2, 10 mins penetration, UV 0.6 MED): 20%
SAR (%) 30 mins (30 mins penetration, UV 0.6 MED): 6%
SAR (%) 4 hrs (4 hrs penetration, UV 0.6 MED): 0%
SAR (%) 18 hrs (18 hrs penetration, UV 0.6 MED): 0%
protection after UV (after 10 minutes application): 24%
protection after UV (after 30 minutes): very weak protection
increase of the SAP values before UV irradiation with respect to untreated skin (without UV irradiation): 29%
